Common to all, as to format: biochemical
The target of experiment [1] is T1, porcine pancreatic lipase (Sus scrofa, UniProt P00591).
T1 construct: lipase standard LS7 in accordance with the rules of the “Fédération Internationale Pharmaceutique” (=FIP) (porcine pancreatic lipase, 36,700 FIP units/g); host or cells: porcine pancreas
T1 sequence (P00591 1-450): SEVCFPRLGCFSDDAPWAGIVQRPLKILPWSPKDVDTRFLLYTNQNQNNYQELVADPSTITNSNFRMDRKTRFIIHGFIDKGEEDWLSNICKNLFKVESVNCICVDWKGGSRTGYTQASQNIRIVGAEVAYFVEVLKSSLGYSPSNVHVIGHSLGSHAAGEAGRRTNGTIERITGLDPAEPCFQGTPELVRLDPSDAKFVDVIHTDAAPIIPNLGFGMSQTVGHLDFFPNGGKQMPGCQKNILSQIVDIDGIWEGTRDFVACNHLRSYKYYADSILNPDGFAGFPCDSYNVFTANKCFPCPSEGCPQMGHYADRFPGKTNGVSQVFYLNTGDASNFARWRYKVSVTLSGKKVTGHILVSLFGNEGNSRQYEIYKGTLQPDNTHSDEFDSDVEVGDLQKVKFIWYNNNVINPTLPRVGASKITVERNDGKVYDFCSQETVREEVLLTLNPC
As to the kind of experiment: p-nitrophenyl palmitate (pNpp) test: inhibition of lipolytic action of porcine pancreatic lipase in vitro. Particulars: substrate p-nitrophenyl palmitate, 37° C., absorbance at 405 nm; read-out: IC50, porcine pancreatic lipase-inhibiting action in vitro with respect to pNpp. On the procedure:
1. p-nitrophenyl Palmitate Test
In this test the inhibition of the lipolytic action of porcine pancreatic lipase with respect to the test substrate p-nitrophenyl palmitate(=pNpp) under the influence of the test substances of Formula I was determined. Therein, the change in the relative absorbance of the investigated solutions caused by the lipolytic release of p-nitrophenol from pNpp was measured.
(§1) The reagents given below were prepared:
To prepare a “solution A”, 45 mg pNpp was dissolved in 15 ml isopropanol by sonication with ultrasound. To prepare a “solution B”, 558 mg Na-deoxycholate dry substance and 67.5 mg gum arabic were dissolved in 135 ml 0.05 M sodium phosphate buffer (pH=8.0). 15 ml “solution A” was injected into 135 ml ice-cold “solution B” in […] of 1.25 ml with an Eppendorf hand dispenser with stirring at 400 rpm at the highest possible rate. The initial absorbance E1 when determining the blank reading was less than 0.250 U each time.
B. Sodium Chloride Solution 1% (mN)
10 g sodium chloride (NaCl, p.a.) was dissolved in 1000 ml ultrapure water.
C. Lipase Standard Solution (50 FIP units/ml)
120.8 mg lipase standard LS7 in accordance with the rules of the “Fédération Internationale Pharmaceutique” (=FIP) (porcine pancreatic lipase, 36,700 FIP units/g) was dissolved in 50 ml ice-cold sodium chloride solution (B) and filtered through a 0.2 μm syringe filter. 20 ml of the filtrate was diluted with […] sodium chloride solution (B) (corresponding to 50 FIP units/ml).
D. Lipase Calibration Solutions (10–20–30–40 FIP units/ml)
In each case 2–4–6–8 ml lipase standard solution (C) was made up to 10 ml with sodium chloride solution (B) and stored in an ice bath.
E. Lipase Stock Solution (40 FIP units/ml)
8 ml lipase standard solution was made up to 10 ml with sodium chloride solution (B) and stored in an ice bath.
The lipase-inhibitory compounds of Formula I were dissolved in DMSO. A dilution series of 100–0.1 nmol/ml was produced from this stock solution. 100 μl of these dilutions were used in the test. The dilutions were adapted such that the maximum residual activity of the lipase was >90%.
Measurement was effected at 37° C., and the absorbances were measured at a wavelength of 405 nm. The photometric measuring station comprised a photometer and an agitator (from Eppendorf). The photometer was adjusted to 0 U with water. At the start and end of the investigation series, in each case eight blank readings and one lipase calibration series were measured. For the blank readings, in each case 1 ml substrate solution was mixed with 100 μl DMSO, the mixture was shaken for 5 seconds and kept at a controlled temperature for 5 minutes. Then 100 μl sodium chloride solution (B) were added thereto by pipette and the mixture was shaken for a further 5 seconds. After 2 minutes, the increase in absorbance was detected for 4 minutes. The absorbance starting value E1 when determining the blank readings was in each case less than 0.250 U.
For the calibration, 1 ml substrate solution was placed in each of eight cuvettes, mixed with 100 μl DMSO, shaken for 5 seconds and kept at a controlled temperature for 5 minutes. The reaction was started with 100 μl calibration solution. After 2 minutes, the kinetics were detected for 4 minutes. Each concentration was measured twice.
For measuring the inhibitor solutions, 1 ml substrate solution was placed in each of eight cuvettes, mixed with 100 μl inhibitor solution, shaken for 5 seconds and then kept at a controlled temperature for 5 minutes. The reaction was started with 100 μl lipase stock solution. After 2 minutes, the kinetics were detected for 4 minutes. The inhibitor solutions and the lipase standard solution were each prepared immediately before the start of the investigation series. […]

In experiment [2] the test system is pancreatic lipase. The experiment is described as follows: Pancreatic lipase-inhibiting action of intermediates of Formula IVa (statement, no method given). The note with it: qualitative statement.
The target of experiment [3] is T1, porcine pancreatic lipase. The experiment is described as follows: Olive oil test: inhibition of porcine pancreatic lipase with respect to triglycerides in olive oil (pH-stat titration). Particulars: substrate olive oil emulsion, pH 9.0, 37.0° C., 10 minutes pre-incubation in ice bath; read-out: IC50, porcine pancreatic lipase-inhibiting action in vitro with respect to triglycerides in olive oil. The protocol:
In a heterogeneous reaction, the inhibition of the lipolytic action of porcine pancreatic lipase was determined under the influence of the test substances of Formula I with respect to the triglycerides contained in the test substrate olive oil. The fatty acids released by the lipase were titrated with sodium hydroxide solution to pH 9.0.
as §1
A. Gum Arabic Solution 10% (m/V)
200 g gum arabic (Acaciae gummi in accordance with the specifications of the German Pharmacopeia (=DAB)/European Pharmacopeia (=Ph.Eur.) was dissolved in 2000 ml ultrapure water with stirring and if necessary centrifugation. The solution was stored at −20° C. in plastic vessels of capacity of 250 ml. The amount required per day was thawed as required.
B. Sodium Taurocholate Solution 8% (m/V)
8 g sodium taurocholate (FIP) was dissolved in 100 ml ultrapure water.
60.6 mg Tris(hydroxymethyl)aminomethane p.a. (Merck, No. 8382) and 234 mg sodium chloride (p.a.) were dissolved in 100 ml ultrapure water.
D. 0.1 N Sodium Hydroxide Solution […]
1 ml lipase reference suspension was incubated with the respective amount of inhibitor solution for 10 minutes in an ice bath. […] The sodium hydroxide consumption between the 1st and the 5th minute was evaluated. […]

In the case of `CCCCCCC1C(=O)OC1CCCCCOC(=O)NC(=O)c1ccccc1` (stereo not shown) [Example 10], the IC50 in experiment [1] turned out to be 177 nM. Take `CCCCCCC1C(=O)OC1CCCCCOC1CCCCO1` (stereo not shown) [3-hexyl-4-{5[(tetrahydro-2H-pyran-2-yl)oxy]pentyl}oxetan-2-one]: the “action inhibiting pancreatic lipase” value in experiment [2] is “exhibit an action inhibiting pancreatic lipase”.

Consider `CCCCCC[C@@H]1C(=O)O[C@H]1CCCCCOC(=O)Nc1ccc(Oc2ccccc2)cc1` (relative stereo) [Example 1, trans-(3-hexyl-4-oxo-oxetan-2-yl)-pentyl-(phenoxyphenyl)-carbamate], for which the IC50 worked out at 17 nM in experiment [3] and 106 nM in experiment [1]. In the case of `CCCCCCC1C(=O)OC1CCCCCOC(=O)Nc1ccc(OCC)cc1` (stereo not shown) [Example 9], the IC50 in experiment [1] came to 67 nM. As for `CCCCCCC1C(=O)OC1CCCCCOC(=O)NC(C)C` (mixture of isomers) [Example 3, cis/trans-5-(3-hexyl-4-oxo-oxetan-2-yl)pentyl-isopropyl carbamate], the IC50 in experiment [1] was 88 nM. Regarding `CCCCCCC1C(=O)OC1CCCCCOC(=O)NCCc1ccccc1` (stereo not shown) [Example 11], in experiment [1], the IC50 is 28 nM. For the compound `CCCCCCC1C(=O)OC1CCCCCOC(=O)Nc1ccc(Cl)c(Cl)c1` (stereo not shown) [Example 13], the IC50 in experiment [1] was 319 nM. On to `CCCCCCC1C(=O)OC1CCCCCOC(=O)Nc1ccccc1` (mixture of isomers) [Example 2, cis/trans-5-(3-hexyl-4-oxo-oxetan-2-yl)pentyl-phenyl carbamate], for which the IC50 in experiment [1] is 47 nM. With `CCCCCCC1C(=O)OC1CCCCCOC(=O)NCc1ccccc1` (stereo not shown) [Example 8], the IC50 in experiment [1] worked out at 187 nM. Turning to `CCCCCCC1C(=O)OC1CCCOC(=O)Nc1ccccc1` (racemic) [Example 7], in experiment [1], the IC50 was found to be 107 nM. For `CCCCCC[C@@H]1C(=O)O[C@H]1CCCCCOC(=O)Nc1ccc(Oc2ccccc2)cc1` [Example 6, (2S,3S)-5-(3-hexyl-4-oxo-oxetan-2-yl)-pentyl-(4-phenoxyphenyl)-carbamate], in experiment [1], the IC50 turned out to be 113 nM.

Turning to `CCCCCCC1C(=O)OC1CCCCCOCc1ccccc1` (stereo not shown) [3-hexyl-4-[5(benzyloxy)pentyl}]oxetan-2-one], in experiment [2], the “action inhibiting pancreatic lipase” value is “exhibit an action inhibiting pancreatic lipase”.

The term IC50 denotes the concentration needed to halve the response being measured.

Source of the values: US7074822B2, “Alkyl carbamate-substituted β-lactones, process for their preparation, and pharmaceutical compositions containing them” (Solvay Pharmaceuticals GmbH, priority 2004, dated 2006).
